Test results published in patent US9399759B2, “Method for producing neurospheres” (Keio University, priority 2008, dated 2016).

Legend:
[1] = system: human fibroblasts; assay: Effect of LIF, cAMP and Y27632 on number of human neurospheres formed (Example 2); type: cell-based; details: media with cAMP in place of or in addition to LIF, or cAMP, FIG. 4B
Procedure: (§1) The dedifferentiation factor-introduced fibroblasts cultured as above were dissociated by washing with 0.25% trypsin EDTA, resuspended in 10 ml of DMEM/F-12 serum-free medium (1:1, Invitrogen; containing 0.6% D-glucose, 5 mM HEPES, 3 mM NaHCO3, 2 mM glutamine, 25 ug/ml insulin, 100 ug/ml transferrin, 20 nM progesterone, 60 uM putrescine and 30 nM sodium selenate) supplemented with LIF (recombinant human LIF; Chemi-Con, 100 U/ml) and FGF (PeproTech, 20 ng/ml) at the density of 50 cells/ul, seeded in bacterial plastic culture dishes, and cultured in suspension under the conditions of 37° C. and 5% CO2 with exchanging the culture media every 14 days. On Day 3 and Day 20 during the suspension culture, the states of the cells were observed.
In the case of human fibroblasts, the culture media were supplemented with cAMP in place of or in addition to LIF or with cAMP, LIF and a ROCK inhibitor Y27632, and the number of the neurospheres obtained from 250000 cells was counted.

[2] = system: dedifferentiation factor-introduced fibroblasts; assay: Effect of cell death inhibitors on induction of differentiation into mouse neurospheres (Example 2); type: cell-based; details: Day 20 of the culture, FIG. 4A
Procedure: as §1
In order to examine the improvement of the efficiency for the induction of differentiation into neurospheres by cell death inhibitors of N-acetyl-L-cysteine (NAC) and 8-chlorophenylthio (pCPT-cAMP), a membrane-permeable analog of cAMP, media supplemented with either or both of 1 mM of NAC(Sigma) and 100 uM of pCPT-cAMP (Sigma) were used in the suspension culture as described in Example 1. Other procedures were followed in the same way as described in Example 1, and numbers of neurospheres on Day 20 of the culture were counted.

Compound	effect on neurosphere formation (number of neurospheres obtained from 250000 cells) [1]	increase of number of neurospheres per 10 ml of the medium as compared to Control Group ([2]; only pCPT-cAMP added, 100 uM, adult mouse fibroblasts)	number of neurospheres as compared to the Control Group ([2]; only NAC added, 1 mM)
Nc1ncnc2c1nc(Sc1ccc(Cl)cc1)n2[C@@H]1O[C@@H]2COP(=O)([O-])O[C@H]2[C@H]1O.[Na+] [pCPT-cAMP, 8-chlorophenylthio (pCPT-cAMP)]	additive effect	over 100 fold	–
CC(=O)N[C@@H](CS)C(=O)O [NAC, N-acetyl-L-cysteine]	–	–	no difference was observed
LIF: recombinant human LIF; Chemi-Con; growth factor added to the medium	additive effect	–	–
C[C@@H](N)[C@H]1CC[C@H](C(=O)Nc2ccncc2)CC1 [Y27632]	no effect	–	–
